Data reported in US6417213B2, “Tricyclic compound, their production and use” (Takeda Chemical Industries, Ltd., priority 1996, dated 2002).
pIC50: −log10 of the molar value.

Assays:
[1] = biological target: T1, human PGI2 receptors (Homo sapiens, UniProt P43119); assay: PGI2 receptor binding assay; conditions: membrane fraction of CHO cells expressing human PGI2 receptors, [3H]Iloprost 20 nM, pH 6.0, 37° C. 1 hour; read-out: IC50, inhibition of [3H]Iloprost binding to the human PGI2 receptor
T1 construct: expressed in transfected cells; host or cells: CHO cells (membrane fraction)
T1 sequence (P43119 whole entry): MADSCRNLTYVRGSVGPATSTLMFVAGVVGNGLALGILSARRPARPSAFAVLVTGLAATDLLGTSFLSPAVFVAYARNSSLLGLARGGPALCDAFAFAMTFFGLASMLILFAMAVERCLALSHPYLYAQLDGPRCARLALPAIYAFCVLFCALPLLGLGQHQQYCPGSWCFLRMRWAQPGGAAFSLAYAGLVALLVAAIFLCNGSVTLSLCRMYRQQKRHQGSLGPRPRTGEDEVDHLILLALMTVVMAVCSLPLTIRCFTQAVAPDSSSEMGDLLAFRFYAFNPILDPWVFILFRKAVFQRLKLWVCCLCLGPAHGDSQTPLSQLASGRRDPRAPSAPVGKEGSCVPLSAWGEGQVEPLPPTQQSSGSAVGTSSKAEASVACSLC
Protocol: PGI2 receptor binding assay
MES-NaOH buffer (pH 6.0) (500 μL) containing the membrane fraction (40 μg) of CHO cells caused to express human PGI2 receptors, [^3H]Iloprost (20 nM), and a test compound solution (50 μL) was incubated at 37° C. for 1 hour and then filtered through a membrane filter to separate the membrane-bound [^3H]Iloprost from the non-membrane-binding [^3H]Iloprost. The radioactivity of the membrane-bound [^3H]Iloprost was determined with a liquid scintillation counter and the binding inhibition rate in each drug treatment group was determined against the specific binding of [^3H]Iloprost to the human PGI2 receptor in the control (solvent) group.
The test compound was added at the final concentrations of 10^−6 to 10^−11 M and the IC50 values were calculated from the inhibition rates at the respective concentrations.

[2] = system: human platelets; assay: Platelet aggregation inhibition assay; type: cell-based; conditions: ADP-induced aggregation, platelet-rich plasma from healthy male adult donors, 37° C.
Protocol: Platelet aggregation inhibition assay
The citrated blood from healthy male adult donors was centrifuged at 1000×g for […] and 20 minutes to harvest platelet-rich plasma (PRP) and platelet-poor plasma (PPP), respectively. Then, PRP was diluted with PPP to a platelet count of 300,000/μL. The degree of platelet aggregation was measured with a platelet aggregation measuring apparatus.
In the assay cuvette, 200 μL of PRP was incubated at 37° C. for 2 minutes. Then, 20 μL of a test drug solution was added and the mixture was further incubated for 2 minutes. Thereafter, aggregation was induced by adding 20 μl of ADP solution. The aggregation in the drug treatment group was compared with the maximum aggregation in the control group to find the inhibition rate. ADP was used in the minimal concentration (2×10^−6 to 3×10^−5 M) inducing maximal aggregation in each assay.
The test compound was added at the final concentrations of 10^−3 to 10^−9 and the IC50 value was calculated from the inhibition rates at the respective concentrations.

Work on `O=C(O)COc1cccc2c1CCc1sc(SCC(c3ccccc3)c3ccccc3)nc1-2` [Example 1, [[2-(2,2-Diphenylethyl)thio-4,5-dihydronaphtho[1,2-d]thiazol-6-yl]oxy]acetic acid] yielded a pIC50 [1] of 7.62 and a pIC50 [2] of 6.27.
Molecule `O=C(O)COc1cccc2c1OCc1sc(SCCC(c3ccccc3)c3ccccc3)nc1-2` [Example 11, [[2-(3,3-Diphenylpropyl)thio-4H-[1]benzopyrano[4,3-d]thiazol-6-yl]oxy]acetate acid] has a pIC50 [1] of 7.09.
Molecule `O=C(O)COc1cccc2c1OCc1sc(SCC(c3ccccc3)c3ccccc3)nc1-2` [Example 12, [[2-(2,2-Diphenylethyl)thio-4H-[1]benzopyrano[4,3-d]thiazol-6-yl]oxy]acetic acid] has a pIC50 [1] of 7.21.
`O=C(O)COc1cccc2c1CCc1sc(SC(c3ccccc3)c3ccccc3)nc1-2` [Example 21, [(2-Diphenylmethylthio-4,5-dihydronaphtho[1,2-d]thiazol-6-yl)oxy]acetic acid] showed a pIC50 [1] of 8.70 and a pIC50 [2] of 6.68.
With `O=C(O)COc1cccc2c1CCc1sc(S(=O)(=O)CC(c3ccccc3)c3ccccc3)nc1-2` [Example 29, [[2-(2,2-Diphenylethyl)sulfonyl-4,5-dihydronaphtho[1,2-d]thiazol-6-yl]oxy]acetic acid] the pIC50 [1] was 7.68.
